{"source": "patent US20230079107A1", "about": "“COMPOSITIONS AND METHODS FOR THE TREATMENT OF HUMAN IMMUNODEFICIENCY VIRUS” (Cidara Therapeutics, Inc., priority 2019, published 2023)", "format_in_all_cases": "cell-based", "key": {"[1]": {"target": "cell-cell fusion of HeLa-CD4-LTR-β-Gal and HL2/3 cells mediated by gp120 and CD4 interaction (UniProt P04578)"}, "in vitro": {"experiment": "in vitro", "design": "TC50: unit not given beside the values", "conditions": "human", "method": "(§1) In these studies, cytotoxicity was also evaluated (TC50). Test materials were derived by measuring the reduction of the tetrazolium dye XTT (2,3-bis(2-methoxy-4-nitro-5-sulfophenyl)-5-[(phenylamino)carbonyl]-2H-tetrazolium hydroxide). XTT in metabolically active cells is metabolized by the mitochondrial enzyme NADPH oxidase to a soluble formazan product. XTT solution was prepared daily as a stock of 1 mg/mL in RPMI-1640 without additives. Phenazine methosulfate (PMS) solution was prepared at 0.15 mg/mL in DPBS and stored in the dark at −20° C. XTT/PMS stock was prepared immediately before use by adding 40 μL of PMS per mL of XTT solution. 50 μL of XTT/PMS was added to each well of the plate and the plate incubated for 4 hours at 37° C. The 4 hour incubation has been empirically determined to be within the linear response range for XTT dye reduction with the indicated numbers of cells for each assay. The plates were sealed and inverted several times to mix the soluble formazan product and the plate was read at 450 nm (650 nm reference wavelength) with a Molecular Devices SpectraMax Plus 384 96 well plate format spectrophotometer.\nas §1, with “Fifty L (50 μL)” for “50 μL”\nas §1, with “studies” for “studies,”, “Fifty L (50 μL)” for “50 μL”\n(§2) In these studies, cytotoxicity was also evaluated (TC50). Test materials were derived by measuring the reduction of the tetrazolium dye XTT (2,3-bis(2-methoxy-4-nitro-5-sulfophenyl)-5-[(phenylamino)carbonyl]-2H-tetrazolium hydroxide). XTT in metabolically active cells is metabolized by the mitochondrial enzyme NADPH oxidase to a soluble formazan product. XTT solution was prepared daily as a stock of 1 mg/mL in RPMI-1640 without additives."}, "[2]": {"system": "HeLa-CD4-LTR-β-Gal and HL2/3 cells (cell viability)", "experiment": "in vitro", "design": "TC50: unit not given beside the values", "conditions": "Example 36, Table 9, XTT", "method": "as §1\nas §1, with “Fifty L (50 μL)” for “50 μL”\nas §1, with “studies” for “studies,”, “Fifty L (50 μL)” for “50 μL”\nas §2"}, "[3]": {"conditions": "Example 19, Table 6, Run 2, XTT, read-out: TC50 [μM] Run 2"}, "[4]": {"conditions": "Example 19, Table 6, Run 3, XTT, read-out: TC50 [μM] Run 3"}, "[5]": {"conditions": "Example 11, Table 5, XTT, read-out: TC50 (the source's name)"}, "[6]": {"conditions": "Example 19, Table 6, Run 1, XTT, read-out: TC50 [μM] Run 1"}, "[7]": {"conditions": "Example 33, Table 7, XTT, read-out: TC50 (nM) (Tox)"}}, "note": "Read-outs that look alike come from different tables or passages of the source."}
{"compound": "C#CCOCCOCCOCCOCC(O)CNC(=O)c1nc(-c2ncc(OC)c3c(C(=O)C(=O)N4CCC(=C(C#N)c5ccccc5)CC4)c[nH]c23)cs1", "note": "(stereo not shown) [Int-4]", "values": [{"measurement": "fusion inhibition activity, in words", "setting": "[1]", "result": "highly active"}, {"measurement": "CC50", "setting": "in vitro; [3]", "result": "> 10", "unit": "µM"}]}
{"compound": "C#CCOCCOCCOCCOCCNC(=O)c1ncn(-c2ncc(OC)c3c(C(=O)C(=O)N4CCC(=C(C#N)c5ccccc5)CC4)c[nH]c23)n1", "note": "[Int-2]", "values": [{"measurement": "fusion inhibition activity, in words", "setting": "[1]", "result": "highly active"}, {"measurement": "CC50", "setting": "in vitro; [3]", "result": "> 10", "unit": "µM"}, {"measurement": "CC50", "setting": "in vitro; [4]", "result": "> 10", "unit": "µM"}]}
{"compound": "C#CCOCCOCCOCCOCCNC(=O)c1csc(-c2ncc(OC)c3c(C(=O)C(=O)N4CCN(C(=O)c5ccccc5)CC4)c[nH]c23)n1", "note": "[Int-9]", "values": [{"measurement": "CC50", "setting": "in vitro; [5]", "result": "> 10", "unit": "µM"}, {"measurement": "CC50", "setting": "in vitro; [6]", "result": "> 10", "unit": "µM"}]}
{"compound": "C#CCOCCOCCOCCOCCN1CCN(CCNC(=O)c2ncn(-c3ncc(OC)c4c(C(=O)C(=O)N5CCC(=C(C#N)c6ccccc6)CC5)c[nH]c34)n2)CC1", "note": "[Int-16]", "values": [{"measurement": "CC50", "setting": "in vitro; [4]", "result": "> 10", "unit": "µM"}]}
{"compound": "C#CCOCCOCCOCCC1CCN(CCNC(=O)c2ncn(-c3ncc(OC)c4c(C(=O)C(=O)N5CCC(=C(C#N)c6ccccc6)CC5)c[nH]c34)n2)CC1", "note": "[Int-11]", "values": [{"measurement": "CC50", "setting": "in vitro; [6]", "result": "> 10", "unit": "µM"}]}
{"compound": "COc1cnc(-n2cnc(COCC(=O)NCCOCCOCCOCCOCCOCCON)n2)c2[nH]cc(C(=O)C(=O)N3CCN(C(=O)c4ccccc4)CC3)c12", "note": "[Int-6]", "values": [{"measurement": "CC50", "setting": "in vitro; [5]", "result": "> 0.5", "unit": "µM"}, {"measurement": "CC50", "setting": "in vitro; [6]", "result": "> 0.5", "unit": "µM"}]}
{"compound": "C#CCOCCOCCOCCOCCN1CCN(CCCN2CCN(CCNC(=O)c3ncn(-c4ncc(OC)c5c(C(=O)C(=O)N6CCC(=C(C#N)c7ccccc7)CC6)c[nH]c45)n3)CC2)CC1", "note": "[Int-19]", "values": [{"measurement": "CC50", "setting": "in vitro; [7]", "result": "> 0.5", "unit": "µM"}]}
{"compound": "C#CCOCCOCCOCCOCCC(=O)NCc1ncn(-c2ncc(OC)c3c(C(=O)C(=O)N4CCN(C(=O)c5ccccc5)CC4)c[nH]c23)n1", "note": "[Int-7]", "values": [{"measurement": "CC50", "setting": "in vitro; [5]", "result": "> 0.5", "unit": "µM"}, {"measurement": "CC50", "setting": "in vitro; [6]", "result": "> 0.5", "unit": "µM"}]}
{"compound": "C#CCOCCOCCOCCOCCNC(=O)c1nc(-c2ncc(OC)c3c(C(=O)C(=O)N4CCC(=C(C#N)c5ccccc5)CC4)c[nH]c23)cs1", "note": "[Int-1]", "values": [{"measurement": "CC50", "setting": "in vitro; [5]", "result": "> 10", "unit": "µM"}, {"measurement": "CC50", "setting": "in vitro; [6]", "result": "> 10", "unit": "µM"}]}
{"compound": "C#CCOCCOCCNC(=N)NCCNC(=O)c1csc(-c2ncc(OC)c3c(C(=O)C(=O)N4CCC(=C(C#N)c5ccccc5)CC4)c[nH]c23)n1", "note": "[Int-3]", "values": [{"measurement": "CC50", "setting": "in vitro; [5]", "result": "> 10", "unit": "µM"}, {"measurement": "CC50", "setting": "in vitro; [6]", "result": "> 10", "unit": "µM"}]}
{"compound": "C#CCOCCOCCOCCOCCN1CCN(CCCNC(=O)c2ncn(-c3ncc(OC)c4c(C(=O)C(=O)N5CCC(=C(C#N)c6ccccn6)CC5)c[nH]c34)n2)CC1", "note": "[Int-27]", "values": [{"measurement": "TC50", "setting": "[2]", "result": ">2000"}]}
{"compound": "C#CCOCCOCCOCCOCCN1CCN(CCCNC(=O)c2ncn(-c3ncc(OC)c4c(C(=O)C(=O)N5CCC(=C(C#N)c6ccccc6)CC5)c[nH]c34)n2)CC1", "note": "[Int-18]", "values": [{"measurement": "CC50", "setting": "in vitro; [7]", "result": "> 0.5", "unit": "µM"}, {"measurement": "TC50", "setting": "[2]", "result": ">2000"}]}
{"compound": "C#CCOCCOCCOCCOCCC(=O)N[C@@H](CS(=O)(=O)O)C(=O)N1CCN(CCNC(=O)c2ncn(-c3ncc(OC)c4c(C(=O)C(=O)N5CCC(=C(C#N)c6ccccc6)CC5)c[nH]c34)n2)CC1", "note": "[Int-14]", "values": [{"measurement": "CC50", "setting": "in vitro; [4]", "result": "> 10", "unit": "µM"}]}
{"compound": "C#CCOCCOCCNC(=N)NCCNC(=O)c1csc(-c2ncc(OC)c3c(C(=O)C(=O)N4CCN(C(=O)c5ccccc5)CC4)c[nH]c23)n1", "note": "[Int-10]", "values": [{"measurement": "CC50", "setting": "in vitro; [5]", "result": "> 10", "unit": "µM"}, {"measurement": "CC50", "setting": "in vitro; [6]", "result": "> 10", "unit": "µM"}]}
{"compound": "C#CCOCCOCCOCCOCCC(=O)N(CC(=O)NCCOCCOCCOCCOCCOCCOCCOCCOCCOCCOCCOCCOC)CC(=O)NCCn1cc(COCCOCCOCCOCCNC(=O)c2ncn(-c3ncc(OC)c4c(C(=O)C(=O)N5CCC(=C(C#N)c6ccccc6)CC5)c[nH]c34)n2)nn1", "note": "[Int-25]", "values": [{"measurement": "CC50", "setting": "in vitro; [7]", "result": "> 0.5", "unit": "µM"}, {"measurement": "TC50", "setting": "[2]", "result": ">2000"}]}
{"compound": "C#CCOCCOCCOCCOCCN1CCN(CCCN2CCN(CCCNC(=O)c3ncn(-c4ncc(OC)c5c(C(=O)C(=O)N6CCC(=C(C#N)c7ccccc7)CC6)c[nH]c45)n3)CC2)CC1", "note": "[Int-22]", "values": [{"measurement": "CC50", "setting": "in vitro; [7]", "result": "> 0.5", "unit": "µM"}, {"measurement": "TC50", "setting": "[2]", "result": ">2000"}]}
{"compound": "C#CCOCCOCCOCCOCCC(=O)N(CCCNC(=O)c1ncn(-c2ncc(OC)c3c(C(=O)C(=O)N4CCC(=C(C#N)c5ccccc5)CC4)c[nH]c23)n1)C(CO)(CO)CO", "note": "[Int-17]", "values": [{"measurement": "CC50", "setting": "in vitro; [4]", "result": "> 10", "unit": "µM"}, {"measurement": "CC50", "setting": "in vitro; [7]", "result": "> 0.5", "unit": "µM"}]}
{"compound": "C#CCOCCOCCOCCOCCN(CCCO)CCCN(CCCO)CCCNC(=O)c1ncn(-c2ncc(OC)c3c(C(=O)C(=O)N4CCC(=C(C#N)c5ccccc5)CC4)c[nH]c23)n1", "note": "[Int-26]", "values": [{"measurement": "TC50", "setting": "[2]", "result": ">2000"}]}
{"compound": "C#CCOCCOCCOCCOCCNC(=O)c1cn(-c2ncc(OC)c3c(C(=O)C(=O)N4CCC(=C(C#N)c5ccccc5)CC4)c[nH]c23)nn1", "note": "[Int-13]", "values": [{"measurement": "CC50", "setting": "in vitro; [4]", "result": "> 10", "unit": "µM"}]}
{"compound": "enfuvirtide", "values": [{"measurement": "CC50", "setting": "in vitro; [7]", "result": "> 1", "unit": "µM"}, {"measurement": "TC50", "setting": "[2]", "result": ">1,000"}]}
{"compound": "C#CCOCCOCCOCCOCCNC(=O)COCc1ncn(-c2ncc(OC)c3c(C(=O)C(=O)N4CCN(C(=O)c5ccccc5)CC4)c[nH]c23)n1", "note": "[Int-5]", "values": [{"measurement": "CC50", "setting": "in vitro; [5]", "result": "> 0.5", "unit": "µM"}, {"measurement": "CC50", "setting": "in vitro; [6]", "result": "> 0.5", "unit": "µM"}]}
{"compound": "C#CCOCCOCCOCCOCCOc1cnc(-n2cnc(C)n2)c2[nH]cc(C(=O)C(=O)N3CCN(C(=O)c4ccccc4)CC3)c12", "note": "[Int-8]", "values": [{"measurement": "CC50", "setting": "in vitro; [5]", "result": "> 10", "unit": "µM"}, {"measurement": "CC50", "setting": "in vitro; [6]", "result": "> 10", "unit": "µM"}]}
{"compound": "C#CCOCCOCCOCCOCCC(=O)N(CCCNC(=O)c1ncn(-c2ncc(OC)c3c(C(=O)C(=O)N4CCC(=C(C#N)c5ccccc5)CC4)c[nH]c23)n1)CCS(=O)(=O)O", "note": "[Int-15]", "values": [{"measurement": "CC50", "setting": "in vitro; [4]", "result": "> 10", "unit": "µM"}]}
{"compound": "C#CCOCCOCCOCCOCCNC(=O)c1ncn(-c2ncc(OC)c3c(C(=O)C(=O)N4CCN(C(=O)c5ccccc5)CC4)c[nH]c23)n1", "note": "[Int-20]", "values": [{"measurement": "CC50", "setting": "in vitro; [7]", "result": "> 0.5", "unit": "µM"}]}
{"compound": "C#CCOCCOCCOCCOCCC(=O)N(CCCNC(=O)CCOCCNC(=O)c1ncn(-c2ncc(OC)c3c(C(=O)C(=O)N4CCC(=C(C#N)c5ccccc5)CC4)c[nH]c23)n1)C(CO)(CO)CO", "note": "[Int-12]", "values": [{"measurement": "CC50", "setting": "in vitro; [4]", "result": "> 10", "unit": "µM"}]}
{"compound": "COc1cc(-c2ccc(/N=N/c3ccc4c(S(=O)(=O)O)cc(S(=O)(=O)O)c(N)c4c3O)c(OC)c2)ccc1/N=N/c1ccc2c(S(=O)(=O)O)cc(S(=O)(=O)O)c(N)c2c1O", "note": "[CSB, Chicago Sky Blue, reference compound]", "values": [{"measurement": "CC50", "setting": "in vitro; [5]", "result": "> 10", "unit": "µM"}, {"measurement": "CC50", "setting": "in vitro; [6]", "result": "> 10", "unit": "µM"}, {"measurement": "CC50", "setting": "in vitro; [3]", "result": "> 10", "unit": "µM"}, {"measurement": "CC50", "setting": "in vitro; [4]", "result": "> 10", "unit": "µM"}, {"measurement": "CC50", "setting": "in vitro; [7]", "result": "> 10", "unit": "µM"}]}
